Measured values: patent publication US20050008653A1, “Stabilizing molecule” (Medical Research Council, priority 2001, published 2005)
“And” between values parts separate entries of the source, which are not always exact repeats. Identical values can stand only once. Like-named read-outs stand apart in the source and are kept apart here. One block for each compound: values may come before it.

Tests used:
tumour cells = test: FACS analysis of cell cycle distribution and cell death (subG1); type: cell-based; details: 10 μg/mL, 24 h
[1] = biological target: T1, p53 core domain mutant I195T (Homo sapiens, UniProt P04637, I195T); test: Restoration of sequence-specific DNA binding (fluorescein-labelled Gadd45 DNA, anisotropy); type: biochemical; details: CDB3 100 μM
T1 construct: human p53 core domain wild-type and mutants (residues 94-312); made in house

[2] = biological target: T1, p53 core domain mutant I195T; test: Binding to random double stranded DNA sequence in presence of peptide; type: biochemical
Description: To confirm that the restoration of DNA binding is sequence-specific, we repeated the experiments with the random double stranded DNA sequence fluorescein-[…] […].

p53 core domain [3] = biological target: T2, p53 core domain (Homo sapiens, UniProt P04637); test: Refolding of urea-denatured p53 core domain by fluorescence anisotropy; type: biochemical; design: human p53 core domain wild-type and mutants (residues 94-312); made in house; details: 3 M urea, 10° C.
Description: Upon mixing the peptide with p53 core domain a rapid binding event takes place, leading to the formation of a FL-CDB3-p53 core domain complex. […] There is an increase in the anisotropy over time, as the peptide induced protein refolding by mass action (FIG. 6d). […] Urea weakened the binding to the native structure so that the stabilising effects in 3 M urea are not as pronounced as they would be in water alone.

[4] = tested on: H1299 cells containing p53 R175H; test: Distribution of FL-CDB3 in cells (fluorescence microscopy); type: cell-based; details: without Lipofectamine
Procedure: The results can be seen in FIG. 8.
Top left: H1299 cells containing p53 R 175H. […] The peptide remained visible for at least 48 h.

[5] = biological target: T3, wild-type p53 core domain (Homo sapiens, UniProt P04637); test: DNA binding in presence of peptide (Gadd45 DNA); type: biochemical
T3 construct: human p53 core domain wild-type and mutants (residues 94-312); made in house

p53 = p53 (Homo sapiens, UniProt P04637); test: Stabilisation of active conformations of p53 (no method given)
p53 mutant His273 = details: 24 h incubation, 1-10 μg/mL FL-CDB3
H1299-His175 cells = test: Dead cells by trypan blue exclusion; type: cell-based; details: 10 μg/mL peptide, 24 h; before treatment 5%
[6] = biological target: T3, wild-type p53 core domain; test: Differential scanning calorimetry (apparent Tm); type: binding; details: HEPES buffer pH 7.2, 1 mM DTT; 40.1° C. without peptide
Procedure: Differential Scanning Calorimetry may also be used to detect and/or quantify binding. Differential Scanning Calorimetry may be performed using methods known to those skilled in the art. In a suitable example, DSC experiments are performed using a Microcal VP-DSC microcalorimeter (Microcal, Amherst, Mass.). Temperatures from 5 to 95° C. are scanned at a rate of 60 deg/h, using a HEPES buffer pH 7.2, 1 mM DTT, which also served for baseline measurements. […] A pressure of 25 psi […] is applied to the cell. The data is analysed using Origin software (Microcal).
The thermal denaturation of p53 core domain is irreversible, and thus only an apparent melting temperature (Tm) can be determined (Bullock et al., 1997), but increase in stability can be correlated with increase in the apparent Tm. All DSC measurements are carried out in HEPES buffer pH 7.2, 1 mM DTT.

[7] = biological target: wild-type p53 core domain (94-312) (Homo sapiens, UniProt P04637); details: increasing urea concentrations
[8] = tested on: wtp53 in colon carcinoma HCT116 cells; test: Western blot of induced protein expression; type: cell-based; details: 24 h, 10 μg/mL FL-CDB3
[9] = tested on: control Saos-2 (p53 null) cells; details: 10 μg/mL peptide, 24 h; before treatment 3%
Procedure: (§1) The general methods used in the examples set forth below are described in detail in Bykov et al., Nature Med 8, 282-288 (2002) which is herein incorporated by reference.
(§2) Tumour cells were treated with 10 μg/mL of peptide and analysed the cell cycle distribution and cell death (as subG1 fraction) 24 h post treatment using FACS analysis.

[10] = tested on: control H1299 (p53 null) cells; details: 10 μg/mL peptide, 24 h; before treatment 3%
Procedure: as §1, §2

HCTp53-/- cells = test: Western blot of induced protein expression; type: cell-based; details: 24 h, 10 μg/mL FL-CDB3
Saos-2-His273 cells = test: Dead cells by trypan blue exclusion; type: cell-based; details: 10 μg/mL peptide, 24 h; before treatment 3%
p53 core domain [11] = biological target: T2, p53 core domain; details: Gadd45 DNA 5-25 μM
[12] = tested on: p53 mutant His175 in H1299 lung carcinoma cells; details: 24 h incubation
Procedure: as §1
Lung carcinoma cells H1299 transfected with His175 p53 mutant and parental nontransfected cells were treated with the amounts of peptide indicated below, incubated for 24 h and tested for p53, p21, and Mdm-2 protein expression. […] The treatment with peptide was performed either with or without Lipofectamine.

p53 core domain [13] = biological target: T2, p53 core domain; test: Anisotropy competition with fluorescein-labeled CDB3; details: solution measurements
p53 core domain [14] = biological target: T2, p53 core domain; test: BIAcore binding of p53 core domain to immobilised biotinylated CDB3 (half saturation concentration); design: human p53 core domain wild-type and mutants (residues 94-312); made in house
Description: Surface plasmon resonance measurements may be performed using a BIAcore 2000 using methods familiar to those skilled in the art. For example, it may be equipped with a sensor chip SA (BIAcore AB, Uppsala, Sweden) both to screen the polypeptide for binding of stabilising molecule and to quantify the binding of the stabilising molecule to the polypeptide. […] Biotinylated stabilising molecules such as CDB peptides may be immobilised and the binding of the polypeptide (in this case p53) can therefore be studied.
All immobilisation as well as binding measurements may be performed at 10° C. with 50 mM HEPES, pH 7.2, 5 mM DTT, as running buffer, using a sample frequency of 1 Hz. The streptavidin surface of the chip can be activated with […] NaOH, 1 M NaCl, in three cycles of 1 min, 20 μL/min, before the immobilization of peptides. The biotinylated peptides may be dissolved to a final concentration of 1.5-4.0 mM (in buffer as above with addition of 0.13 M NaCl) and can be immobilised at a flow rate of 5 μL/min until the level of saturation is reached. In the above Example Flow cell 1 can be used as a background for the change in bulk refractive index.
The binding association is measured for 5 min at 30 μL/min, […], in the buffer described above (no salt added). […]
Surface plasmon resonance can be used to measure the CDB3-p53 core domain binding constant quantitatively. […]

improvement of I195T binding to Gadd45 DNA [1]: six fold
effect on binding of I195T to random DNA sequence [2]: not improved, but rather inhibited
refolding of p53 core domain (p53 core domain [3]): induced refolding of p53 core domain
effect on DNA binding of wild-type p53 core domain [5]: did not affect DNA binding
SMILES: CC[C@H](C)[C@H](NC(=O)[C@H](CCC(=O)O)NC(=O)[C@H](CC(=O)O)NC(=O)[C@H](CCC(=O)O)NC(=O)[C@H](CC(=O)O)NC(=O)[C@H](CCC(=O)O)NC(=O)[C@@H](N)CCCNC(=N)N)C(=O)N[C@@H](CCC(=O)O)C(=O)N[C@@H](Cc1c[nH]c2ccccc12)C(N)=O [CDB3]
apoptosis (tumour cells): induces apoptosis in tumour cells in p53-dependent manner
growth arrest (tumour cells): no growth arrest was detected
penetration into cells [4]: able to penetrate inside the cells by itself

SMILES: COc1ccc(/C=C/c2nc(NCCCN(C)C)c3ccccc3n2)cc1 [CP-31398]
stabilisation of active conformations of p53 (p53): does not in fact work to stabilise active conformations of p53

SMILES: CC[C@H](C)[C@H](NC(=O)[C@H](CCC(=O)O)NC(=O)[C@H](CC(=O)O)NC(=O)[C@H](CCC(=O)O)NC(=O)[C@H](CC(=O)O)NC(=O)[C@H](CCC(=O)O)NC(=O)[C@H](CCCNC(=N)N)NC(=O)c1ccc2c(c1)C(=O)OC21c2ccc(O)cc2Oc2cc(O)ccc21)C(=O)N[C@@H](CCC(=O)O)C(=O)N[C@@H](Cc1c[nH]c2ccccc12)C(N)=O [FL-CDB3]
p21 and Mdm-2 protein expression (p53 mutant His273): restored the ability of p53 mutants His175 and His273 to activate the transcription of endogenous genes p21 and Mdm-2
dead cells after treatment (H1299-His175 cells): 37%
apparent Tm of wild-type core domain in presence of peptide [6]: 41.6 °C
dependence of binding on urea concentration [7]: binding weakened with increasing urea concentrations
Mdm-2 and p21 expression [8]: activates expression of Mdm-2 and p21
dead cells after treatment [9]: 13%
dead cells after treatment [10]: 11%
p21 and Mdm-2 induction (HCTp53-/- cells): No induction of p21 nor Mdm-2
dead cells after treatment (Saos-2-His273 cells): 28%
displacement of peptide from p53 core domain by DNA (p53 core domain [11]): displaced the peptide completely
penetration into cells [4]: able to penetrate inside the cells by itself
mutant p53 levels [12]: remarkably increased
p21 and Mdm-2 protein expression ([12]; 10 μg/mL FL-CDB3): restored the ability of p53 mutants His175 and His273 to activate the transcription of endogenous genes p21 and Mdm-2

improvement of affinity compared to the unlabeled peptide (p53 core domain [13]): three-fold
Kd (p53 core domain [14]; biotinylated CDB3 immobilized on SA sensor chip, read-out: concentration of p53 core domain for 50% binding): ~0.2 µM
Kd (p53 core domain [14]; immobilized peptide, half saturation concentration by BIAcore, read-out: Kd): 0.2 µM and ~0.2 µM
SMILES: CC[C@H](C)[C@H](NC(=O)[C@H](CCC(=O)O)NC(=O)[C@H](CC(=O)O)NC(=O)[C@H](CCC(=O)O)NC(=O)[C@H](CC(=O)O)NC(=O)[C@H](CCC(=O)O)NC(=O)[C@H](CCCNC(=N)N)NC(=O)CCCC[C@@H]1SC[C@@H]2NC(=O)N[C@@H]21)C(=O)N[C@@H](CCC(=O)O)C(=O)N[C@@H](Cc1c[nH]c2ccccc12)C(N)=O [biotinylated CDB3]
